Laboratory results taken from PubChem BioAssay (NCI).
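Protocol summary: plate cells (96-well), add compound at 5 concentrations, incubate 48 h, interpolate endpoints linearly. TGI: concentration producing complete growth inhibition.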

The molecules below were run on K-562 leukemia (assay: NCI tumour cell line growth inhibition, 48 h).
With `Cc1cccc(C)c1NC(=O)C(=O)C1C(=O)NC(=O)NC1=O` the TGI was > 100 µM.
`O=C1/C(=C/c2ccccc2)CNC/C1=C\c1ccccc1` was tested, and the TGI was > 23.8 µM.
Molecule `CN1CCN(C)C12C=c1ccccc1=CC21CC1` has a TGI of 46.4 µM.
In the case of `CCCCN=C(NC#N)NCCCC`, the TGI is reported as > 100 µM.
Molecule `CCCCCCCCCCNC1CC(OC2CC(O)(C(O)CO)Cc3c(O)c4c(c(O)c32)C(=O)c2c(OC)cccc2C4=O)OC(C)C1O` (configuration not stated) has a TGI of 0.963 µM.
`O=C(/N=N/C(=O)OCc1ccccc1)OCc1ccccc1` was tested, and the TGI was > 100 µM.

These molecules were tested on SNB-78 CNS (assay: NCI tumour cell line growth inhibition, 48 h).
With `Cc1cccc(C)c1NC(=O)C(=O)C1C(=O)NC(=O)NC1=O` the TGI was > 100 µM.
`O=C1/C(=C/c2ccccc2)CNC/C1=C\c1ccccc1` showed a TGI of 41.8 µM.
`CN1CCN(C)C12C=c1ccccc1=CC21CC1` was tested, and the TGI was > 100 µM.
`CCCCN=C(NC#N)NCCCC` was tested, and the TGI was > 100 µM.
For `O=C(/N=N/C(=O)OCc1ccccc1)OCc1ccccc1`, the TGI was > 100 µM.

The molecules below were run on XF 498 CNS (assay: NCI tumour cell line growth inhibition, 48 h).
For `Cc1cccc(C)c1NC(=O)C(=O)C1C(=O)NC(=O)NC1=O`, the TGI was > 100 µM.
Work on `O=C1/C(=C/c2ccccc2)CNC/C1=C\c1ccccc1` yielded a TGI of 6.41 µM.
`COC(=O)/C=C/c1cc(OC)c(OC)c(OC)c1` was tested, and the TGI was > 100 µM.
In the case of `CN1CCN(C)C12C=c1ccccc1=CC21CC1`, the TGI is reported as 49.5 µM.
For `CCCCN=C(NC#N)NCCCC`, the TGI was > 100 µM.
`CCCCCCCCCCNC1CC(OC2CC(O)(C(O)CO)Cc3c(O)c4c(c(O)c32)C(=O)c2c(OC)cccc2C4=O)OC(C)C1O` (configuration not stated) gave a TGI of 3.34 µM.
In the case of `O=C(/N=N/C(=O)OCc1ccccc1)OCc1ccccc1`, the TGI is reported as > 100 µM.

The molecules below were run on SK-MEL-2 melanoma (assay: NCI tumour cell line growth inhibition, 48 h).
In the case of `O=C1/C(=C/c2ccccc2)CNC/C1=C\c1ccccc1`, the TGI is reported as 9.18 µM.
With `COC(=O)/C=C/c1cc(OC)c(OC)c(OC)c1` the TGI was > 100 µM.
With `CN1CCN(C)C12C=c1ccccc1=CC21CC1` the TGI was 53.7 µM.
For `CCCCN=C(NC#N)NCCCC`, the TGI was > 100 µM.
For `O=C(/N=N/C(=O)OCc1ccccc1)OCc1ccccc1`, the TGI was > 100 µM.

The molecules below were run on NCI/ADR-RES ovarian (assay: NCI tumour cell line growth inhibition, 48 h).
For `CN1CCN(C)C12C=c1ccccc1=CC21CC1`, the TGI was > 100 µM.

Each molecule was assayed on M14 melanoma (assay: NCI tumour cell line growth inhibition, 48 h).
With `Cc1cccc(C)c1NC(=O)C(=O)C1C(=O)NC(=O)NC1=O` the TGI was > 100 µM.
For `O=C1/C(=C/c2ccccc2)CNC/C1=C\c1ccccc1`, the TGI was 3.56 µM.
In the case of `COC(=O)/C=C/c1cc(OC)c(OC)c(OC)c1`, the TGI is reported as > 100 µM.
`CN1CCN(C)C12C=c1ccccc1=CC21CC1` showed a TGI of 34.8 µM.
With `CCCCN=C(NC#N)NCCCC` the TGI was > 100 µM.
`O=C(/N=N/C(=O)OCc1ccccc1)OCc1ccccc1` was tested, and the TGI was > 100 µM.

These molecules were tested on HCT-116 colon (assay: NCI tumour cell line growth inhibition, 48 h).
With `Cc1cccc(C)c1NC(=O)C(=O)C1C(=O)NC(=O)NC1=O` the TGI was > 100 µM.
`O=C1/C(=C/c2ccccc2)CNC/C1=C\c1ccccc1` gave a TGI of 0.415 µM.
In the case of `COC(=O)/C=C/c1cc(OC)c(OC)c(OC)c1`, the TGI is reported as > 100 µM.
`CN1CCN(C)C12C=c1ccccc1=CC21CC1` gave a TGI of 56.9 µM.
For `CCCCN=C(NC#N)NCCCC`, the TGI was > 100 µM.
For `CCCCCCCCCCNC1CC(OC2CC(O)(C(O)CO)Cc3c(O)c4c(c(O)c32)C(=O)c2c(OC)cccc2C4=O)OC(C)C1O` (configuration not stated), the TGI was 0.65 µM.
`O=C(/N=N/C(=O)OCc1ccccc1)OCc1ccccc1` was tested, and the TGI was > 100 µM.

What follows are molecules tested on UACC-257 melanoma (assay: NCI tumour cell line growth inhibition, 48 h).
In the case of `Cc1cccc(C)c1NC(=O)C(=O)C1C(=O)NC(=O)NC1=O`, the TGI is reported as > 100 µM.
Molecule `O=C1/C(=C/c2ccccc2)CNC/C1=C\c1ccccc1` has a TGI of 10.6 µM.
In the case of `COC(=O)/C=C/c1cc(OC)c(OC)c(OC)c1`, the TGI is reported as > 100 µM.
Molecule `CN1CCN(C)C12C=c1ccccc1=CC21CC1` has a TGI of 48.2 µM.
In the case of `CCCCN=C(NC#N)NCCCC`, the TGI is reported as > 100 µM.
For `CCCCCCCCCCNC1CC(OC2CC(O)(C(O)CO)Cc3c(O)c4c(c(O)c32)C(=O)c2c(OC)cccc2C4=O)OC(C)C1O` (configuration not stated), the TGI was 3.05 µM.
`O=C(/N=N/C(=O)OCc1ccccc1)OCc1ccccc1` was tested, and the TGI was > 100 µM.

These molecules were tested on A549 NSCLC (assay: NCI tumour cell line growth inhibition, 48 h).
For `Cc1cccc(C)c1NC(=O)C(=O)C1C(=O)NC(=O)NC1=O`, the TGI was > 100 µM.
Molecule `O=C1/C(=C/c2ccccc2)CNC/C1=C\c1ccccc1` has a TGI of 7.63 µM.
With `COC(=O)/C=C/c1cc(OC)c(OC)c(OC)c1` the TGI was > 100 µM.
With `CN1CCN(C)C12C=c1ccccc1=CC21CC1` the TGI was > 100 µM.
`CCCCN=C(NC#N)NCCCC` was tested, and the TGI was > 100 µM.
In the case of `O=C(/N=N/C(=O)OCc1ccccc1)OCc1ccccc1`, the TGI is reported as > 100 µM.

What follows are molecules tested on NCI-H226 lung (assay: NCI tumour cell line growth inhibition, 48 h).
For `Cc1cccc(C)c1NC(=O)C(=O)C1C(=O)NC(=O)NC1=O`, the TGI was > 100 µM.
`O=C1/C(=C/c2ccccc2)CNC/C1=C\c1ccccc1` was tested, and the TGI was 6.18 µM.
With `COC(=O)/C=C/c1cc(OC)c(OC)c(OC)c1` the TGI was > 100 µM.
For `CN1CCN(C)C12C=c1ccccc1=CC21CC1`, the TGI was > 100 µM.
`CCCCN=C(NC#N)NCCCC` was tested, and the TGI was > 100 µM.

What follows are molecules tested on A498 renal (assay: NCI tumour cell line growth inhibition, 48 h).
In the case of `Cc1cccc(C)c1NC(=O)C(=O)C1C(=O)NC(=O)NC1=O`, the TGI is reported as > 100 µM.
`O=C1/C(=C/c2ccccc2)CNC/C1=C\c1ccccc1` was tested, and the TGI was 4.57 µM.
For `CN1CCN(C)C12C=c1ccccc1=CC21CC1`, the TGI was > 100 µM.
`CCCCN=C(NC#N)NCCCC` was tested, and the TGI was > 100 µM.
`CCCCCCCCCCNC1CC(OC2CC(O)(C(O)CO)Cc3c(O)c4c(c(O)c32)C(=O)c2c(OC)cccc2C4=O)OC(C)C1O` (configuration not stated) was tested, and the TGI was 2.62 µM.

The molecules below were run on NCI-H460 lung (assay: NCI tumour cell line growth inhibition, 48 h).
`Cc1cccc(C)c1NC(=O)C(=O)C1C(=O)NC(=O)NC1=O` was tested, and the TGI was > 100 µM.
With `O=C1/C(=C/c2ccccc2)CNC/C1=C\c1ccccc1` the TGI was 3.08 µM.
In the case of `COC(=O)/C=C/c1cc(OC)c(OC)c(OC)c1`, the TGI is reported as > 100 µM.
In the case of `CN1CCN(C)C12C=c1ccccc1=CC21CC1`, the TGI is reported as > 75.1 µM.
With `CCCCN=C(NC#N)NCCCC` the TGI was > 100 µM.
For `O=C(/N=N/C(=O)OCc1ccccc1)OCc1ccccc1`, the TGI was > 100 µM.

What follows are molecules tested on DMS 114 small cell lung (assay: NCI tumour cell line growth inhibition, 48 h).
With `Cc1cccc(C)c1NC(=O)C(=O)C1C(=O)NC(=O)NC1=O` the TGI was > 100 µM.
In the case of `O=C1/C(=C/c2ccccc2)CNC/C1=C\c1ccccc1`, the TGI is reported as 8.36 µM.
`COC(=O)/C=C/c1cc(OC)c(OC)c(OC)c1` was tested, and the TGI was > 100 µM.
For `CN1CCN(C)C12C=c1ccccc1=CC21CC1`, the TGI was 36.3 µM.
In the case of `CCCCN=C(NC#N)NCCCC`, the TGI is reported as > 100 µM.
In the case of `O=C(/N=N/C(=O)OCc1ccccc1)OCc1ccccc1`, the TGI is reported as > 100 µM.

What follows are molecules tested on HOP-62 NSCLC (assay: NCI tumour cell line growth inhibition, 48 h).
With `Cc1cccc(C)c1NC(=O)C(=O)C1C(=O)NC(=O)NC1=O` the TGI was > 100 µM.
`O=C1/C(=C/c2ccccc2)CNC/C1=C\c1ccccc1` was tested, and the TGI was 7.46 µM.
In the case of `COC(=O)/C=C/c1cc(OC)c(OC)c(OC)c1`, the TGI is reported as > 100 µM.
`CN1CCN(C)C12C=c1ccccc1=CC21CC1` was tested, and the TGI was > 100 µM.
In the case of `CCCCN=C(NC#N)NCCCC`, the TGI is reported as > 100 µM.
`O=C(/N=N/C(=O)OCc1ccccc1)OCc1ccccc1` was tested, and the TGI was > 100 µM.

Each molecule was assayed on MOLT-4 leukemia (assay: NCI tumour cell line growth inhibition, 48 h).
With `Cc1cccc(C)c1NC(=O)C(=O)C1C(=O)NC(=O)NC1=O` the TGI was > 100 µM.
Molecule `O=C1/C(=C/c2ccccc2)CNC/C1=C\c1ccccc1` has a TGI of 3.36 µM.
In the case of `COC(=O)/C=C/c1cc(OC)c(OC)c(OC)c1`, the TGI is reported as > 100 µM.
`CN1CCN(C)C12C=c1ccccc1=CC21CC1` gave a TGI of 54.8 µM.
`CCCCN=C(NC#N)NCCCC` was tested, and the TGI was > 100 µM.
With `CCCCCCCCCCNC1CC(OC2CC(O)(C(O)CO)Cc3c(O)c4c(c(O)c32)C(=O)c2c(OC)cccc2C4=O)OC(C)C1O` (configuration not stated) the TGI was 0.9 µM.
For `O=C(/N=N/C(=O)OCc1ccccc1)OCc1ccccc1`, the TGI was > 100 µM.

These molecules were tested on LXFL 529 NSCLC (assay: NCI tumour cell line growth inhibition, 48 h).
With `Cc1cccc(C)c1NC(=O)C(=O)C1C(=O)NC(=O)NC1=O` the TGI was > 100 µM.
Work on `O=C1/C(=C/c2ccccc2)CNC/C1=C\c1ccccc1` yielded a TGI of 3.58 µM.
For `COC(=O)/C=C/c1cc(OC)c(OC)c(OC)c1`, the TGI was > 100 µM.
With `CN1CCN(C)C12C=c1ccccc1=CC21CC1` the TGI was 31.2 µM.
`CCCCN=C(NC#N)NCCCC` was tested, and the TGI was > 100 µM.
In the case of `O=C(/N=N/C(=O)OCc1ccccc1)OCc1ccccc1`, the TGI is reported as > 100 µM.

These molecules were tested on BT-549 breast (assay: NCI tumour cell line growth inhibition, 48 h).
`CN1CCN(C)C12C=c1ccccc1=CC21CC1` was tested, and the TGI was > 100 µM.
